# Earlier results as cited in patent EP0436316A1, “X-ray contrast media for prolonged opacification” (Sovak, Milos, priority 1989, dated 1991).
# Test system: peritoneal surface
# Conditions: barium sulfate spilled into the abdomen after a perforation
smiles,measurement,value
O=S(=O)([O-])[O-].[Ba+2] [barium sulfate],mortality rate of barium peritonitis,~50%
